Test results as given in patent publication US20030229451A1, “Methods and systems for analyzing complex biological systems” (priority 2001, published 2003).

Legend:
[1] = test system: Arabidopsis thaliana plants; test: SOA1 phenotypic analysis of herbicide-treated Arabidopsis (MIC, Tmic, leaf traits); assay type: in vivo; conditions: for leafCurling Dev. / leafTwisting Dev. / leafWidth Dev. / matureLeafAnthocyanins Dev. / matureLeafChlorosis Dev. / matureLeafNecrosis Dev. / newLeafAnthocyanins Dev. / newLeafChlorosis Dev. / newLeafNecrosis Dev. / pointedLeaves Dev.: numeric value standardized to mock treated; for tMic Dev.: time to full range of symptoms at MIC, coded; for characteristic morphological symptoms: herbicide-treated Arabidopsis
Arabidopsis thaliana = test: MOA1 biochemical (metabolite) profiling by LC-MS and GC-MS

Structure (SMILES)	leafCurling Dev. [1]	leafTwisting Dev. [1]	leafWidth Dev. [1]	matureLeafAnthocyanins Dev. [1]	matureLeafChlorosis Dev. [1]	matureLeafNecrosis Dev. [1]	newLeafAnthocyanins Dev. [1]	newLeafChlorosis Dev. [1]	newLeafNecrosis Dev. [1]	pointedLeaves Dev. [1]	tMic Dev. [1]	Number of Metabolites Changed: (unknown #) (Arabidopsis thaliana; 20 min, p < 0.05)	Number of Metabolites Changed: Total # (Arabidopsis thaliana; 20 min, p < 0.05)	Number of Metabolites Changed: (unknown #) (Arabidopsis thaliana; 20 min, p < 0.11)	Number of Metabolites Changed: Total # (Arabidopsis thaliana; 20 min, p < 0.11)	Number of Metabolites Changed: (unknown #) (Arabidopsis thaliana; 1 hr, p < 0.05)	Number of Metabolites Changed: Total # (Arabidopsis thaliana; 1 hr, p < 0.05)	Number of Metabolites Changed: (unknown #) (Arabidopsis thaliana; 1 hr, p < 0.11)	Number of Metabolites Changed: Total # (Arabidopsis thaliana; 1 hr, p < 0.11)	characteristic morphological symptoms [1]	other results
O=C(O)COc1ccc(Cl)cc1Cl [2,4-D]	1	2	−1	1	2	0	0	1	0	0	2	2	3	8	13	3	7	15	25		Symptom Class ([1]; three-week-old Arabidopsis, phenotype class (FIG. 12)): 5
O=C(O)c1cc(Oc2ccc(C(F)(F)F)cc2Cl)ccc1[N+](=O)[O-] [Acifluorfen]	1	0	0	0	0	1	0	0	3	0	1	11	17	20	32	13	19	22	31	Necrotic leaf flecks	
Nc1nc[nH]n1 [Amitrole]	−1	0	2	0	3	0	0	4	0	0	2	6	9	13	17	8	14	20	32	leaf bleaching and leaf enlargement	
CCNc1nc(Cl)nc(NC(C)C)n1 [Atrazine]	1	0	−1	0	1	4	0	1	4	1	1	4 (4)	4 (4)	8	11	8	17	24	49	rapid and widespread leaf necrosis	
O=C(O)Cn1c(=O)sc2cccc(Cl)c21 [Benazolin]	2	2	−2	0	0	0	0	0	0	0	2										
CC(C)N1C(=O)c2ccccc2NS1(=O)=O [Bentazon]	2	0	−2	0	2	4	0	2	4	1	1	3	9	6	10	9	11	14	19	rapid and widespread leaf necrosis	
COC(=O)c1cc(Oc2ccc(Cl)cc2Cl)ccc1[N+](=O)[O-] [Bifenox]	1	0	0	0	0	1	0	0	3	0	1									Necrotic leaf flecks	
CCSC(=O)N(CC(C)C)CC(C)C [Butylate]												10	17	21	33	12	18	22	31		
CC(C)OC(=O)Nc1cccc(Cl)c1 [Chloropropham]												8	12	10	17	5	12	10	20		
COc1c(Cl)ccc(Cl)c1C(=O)O [Dicamba]	2	2	−2	0	2	0	0	0	0	0	2										
c1cc[n+]2c(c1)-c1cccc[n+]1CC2 [Diquat]	2	0	−2	0	1	4	0	1	4	1	2									rapid and widespread leaf necrosis	
CN(C)C(=O)Nc1ccc(Cl)c(Cl)c1 [Diuron]	1	0	−2	0	2	4	0	2	4	1	1									rapid and widespread leaf necrosis	
CC(C)C1(C)N=C(c2ncccc2C(=O)O)NC1=O (stereo not drawn) [Imazapyr]	0	0	0	2	0	0	0	2	0	0	2	2	5	3	9	6	8	10	14	anthocyanin accumulation in the older leaves accompanied by chlorosis of the newly emerging leaves	
CCc1cnc(C2=NC(C)(C(C)C)C(=O)N2)c(C(=O)O)c1 (stereo not drawn) [Imazethapyr]	1	1	0	3	0	0	0	2	0	0	2									anthocyanin accumulation in the older leaves accompanied by chlorosis of the newly emerging leaves	
CCC(C)(CC)c1cc(NC(=O)c2c(OC)cccc2OC)on1 [Isoxaben]												12	26	21	45	16	25	33	55		
CSc1nnc(C(C)(C)C)c(=O)n1N [Metribuzin]	1	0	−2	0	2	4	0	2	4	1	1									rapid and widespread leaf necrosis	
CNc1cnn(-c2cccc(C(F)(F)F)c2)c(=O)c1Cl [Norflurazon]												27	38	36	55	5	6	8	12		
